Measurements reported in publication PMC6407917, “Identification of GSK3186899/DDD853651 as a Preclinical Development Candidate for the Treatment of Visceral Leishmaniasis” (Journal of Medicinal Chemistry, 2018).

Key:
Assay in all cases: biochemical
Parameters in all cases: species or system HEK293/K-562/placenta mixed human extract; Kinobeads chemoproteomic competition binding, quantified by TMT LC-MS/MS, dose response up to 20 uM
ACVR1B = ACVR1B (Homo sapiens, UniProt P36896)
HIPK3 = HIPK3 (Homo sapiens, UniProt Q9H422)
BUB1 = BUB1 (Homo sapiens, UniProt O43683)
PDXK = PDXK (Homo sapiens, UniProt O00764)
WNK4 = WNK4 (Homo sapiens, UniProt Q96J92)
RIPK1 = RIPK1 (Homo sapiens, UniProt Q13546)
STK35 = STK35 (Homo sapiens, UniProt Q8TDR2)
PRKAG2 = PRKAG2 (Homo sapiens, UniProt Q9UGJ0)
HIPK1 = HIPK1 (Homo sapiens, UniProt Q86Z02)
ERN1 = ERN1 (Homo sapiens, UniProt O75460)
EPHB2 = EPHB2 (Homo sapiens, UniProt P29323)
BMX = BMX (Homo sapiens, UniProt P51813)
CDK10 = CDK10 (Homo sapiens, UniProt Q15131)
MINK1 = MINK1 (Homo sapiens, UniProt Q8N4C8)
SRC = SRC (Homo sapiens, UniProt P12931)
MELK = MELK (Homo sapiens, UniProt Q14680)
MAST3 = MAST3 (Homo sapiens, UniProt O60307)
EIF2AK4 = EIF2AK4 (Homo sapiens, UniProt Q9P2K8)
PIK3R4 = PIK3R4 (Homo sapiens, UniProt Q99570)
MAPK11 = MAPK11 (Homo sapiens, UniProt Q15759)
MAP3K1 = MAP3K1 (Homo sapiens, UniProt Q13233)
Chain of MAP3K1 (Q13233 whole entry): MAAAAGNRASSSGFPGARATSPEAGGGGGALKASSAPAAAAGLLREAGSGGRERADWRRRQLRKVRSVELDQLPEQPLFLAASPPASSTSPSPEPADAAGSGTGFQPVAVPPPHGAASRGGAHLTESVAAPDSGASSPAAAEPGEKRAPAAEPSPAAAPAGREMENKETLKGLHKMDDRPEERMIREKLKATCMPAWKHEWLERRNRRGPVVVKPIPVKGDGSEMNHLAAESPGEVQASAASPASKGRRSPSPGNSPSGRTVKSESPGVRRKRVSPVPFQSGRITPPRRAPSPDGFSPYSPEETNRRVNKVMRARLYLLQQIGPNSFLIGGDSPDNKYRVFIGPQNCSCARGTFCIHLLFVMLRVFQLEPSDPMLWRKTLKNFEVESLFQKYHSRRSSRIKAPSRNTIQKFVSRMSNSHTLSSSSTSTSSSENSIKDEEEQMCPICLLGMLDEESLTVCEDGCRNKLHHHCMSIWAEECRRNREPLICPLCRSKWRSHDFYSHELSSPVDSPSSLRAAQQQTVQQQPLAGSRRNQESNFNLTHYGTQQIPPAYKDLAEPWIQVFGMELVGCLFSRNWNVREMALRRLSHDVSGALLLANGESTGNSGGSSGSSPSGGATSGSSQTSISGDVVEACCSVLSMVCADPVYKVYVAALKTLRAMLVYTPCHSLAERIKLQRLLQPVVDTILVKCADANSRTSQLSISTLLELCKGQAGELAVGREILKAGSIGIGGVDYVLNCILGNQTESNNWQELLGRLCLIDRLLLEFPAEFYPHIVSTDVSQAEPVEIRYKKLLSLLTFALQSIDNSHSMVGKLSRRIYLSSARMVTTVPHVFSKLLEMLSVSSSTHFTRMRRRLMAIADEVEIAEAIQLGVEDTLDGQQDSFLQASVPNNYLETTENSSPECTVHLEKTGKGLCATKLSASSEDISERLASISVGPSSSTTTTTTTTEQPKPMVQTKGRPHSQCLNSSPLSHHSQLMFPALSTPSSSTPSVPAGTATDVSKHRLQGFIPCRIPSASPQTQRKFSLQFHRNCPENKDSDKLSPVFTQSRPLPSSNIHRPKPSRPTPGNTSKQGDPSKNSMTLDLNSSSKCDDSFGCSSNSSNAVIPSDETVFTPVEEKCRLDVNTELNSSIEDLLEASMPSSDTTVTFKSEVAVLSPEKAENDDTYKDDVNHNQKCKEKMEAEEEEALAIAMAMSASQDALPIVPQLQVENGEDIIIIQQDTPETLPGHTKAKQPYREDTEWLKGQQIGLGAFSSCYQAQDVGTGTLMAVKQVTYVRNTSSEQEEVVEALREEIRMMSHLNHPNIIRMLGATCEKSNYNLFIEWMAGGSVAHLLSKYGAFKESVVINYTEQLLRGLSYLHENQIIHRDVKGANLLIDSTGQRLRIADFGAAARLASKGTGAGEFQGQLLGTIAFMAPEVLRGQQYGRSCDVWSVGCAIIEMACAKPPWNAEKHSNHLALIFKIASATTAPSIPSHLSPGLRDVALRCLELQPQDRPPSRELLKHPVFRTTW

Chain of PRKAG2 (Q9UGJ0 whole entry): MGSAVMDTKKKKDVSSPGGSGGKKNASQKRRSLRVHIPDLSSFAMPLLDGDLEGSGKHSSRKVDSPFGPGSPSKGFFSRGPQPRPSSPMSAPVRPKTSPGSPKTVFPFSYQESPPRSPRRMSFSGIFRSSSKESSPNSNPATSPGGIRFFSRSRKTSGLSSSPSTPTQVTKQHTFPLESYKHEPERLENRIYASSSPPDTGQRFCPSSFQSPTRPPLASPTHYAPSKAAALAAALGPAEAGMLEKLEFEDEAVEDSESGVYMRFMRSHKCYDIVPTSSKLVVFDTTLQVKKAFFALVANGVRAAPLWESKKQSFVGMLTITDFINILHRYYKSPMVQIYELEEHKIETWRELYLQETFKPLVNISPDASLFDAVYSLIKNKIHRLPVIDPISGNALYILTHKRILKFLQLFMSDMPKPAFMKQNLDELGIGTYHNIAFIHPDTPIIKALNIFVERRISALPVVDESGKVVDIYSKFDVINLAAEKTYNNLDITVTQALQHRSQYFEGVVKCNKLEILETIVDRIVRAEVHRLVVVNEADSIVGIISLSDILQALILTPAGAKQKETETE
Chain of BMX (P51813 whole entry): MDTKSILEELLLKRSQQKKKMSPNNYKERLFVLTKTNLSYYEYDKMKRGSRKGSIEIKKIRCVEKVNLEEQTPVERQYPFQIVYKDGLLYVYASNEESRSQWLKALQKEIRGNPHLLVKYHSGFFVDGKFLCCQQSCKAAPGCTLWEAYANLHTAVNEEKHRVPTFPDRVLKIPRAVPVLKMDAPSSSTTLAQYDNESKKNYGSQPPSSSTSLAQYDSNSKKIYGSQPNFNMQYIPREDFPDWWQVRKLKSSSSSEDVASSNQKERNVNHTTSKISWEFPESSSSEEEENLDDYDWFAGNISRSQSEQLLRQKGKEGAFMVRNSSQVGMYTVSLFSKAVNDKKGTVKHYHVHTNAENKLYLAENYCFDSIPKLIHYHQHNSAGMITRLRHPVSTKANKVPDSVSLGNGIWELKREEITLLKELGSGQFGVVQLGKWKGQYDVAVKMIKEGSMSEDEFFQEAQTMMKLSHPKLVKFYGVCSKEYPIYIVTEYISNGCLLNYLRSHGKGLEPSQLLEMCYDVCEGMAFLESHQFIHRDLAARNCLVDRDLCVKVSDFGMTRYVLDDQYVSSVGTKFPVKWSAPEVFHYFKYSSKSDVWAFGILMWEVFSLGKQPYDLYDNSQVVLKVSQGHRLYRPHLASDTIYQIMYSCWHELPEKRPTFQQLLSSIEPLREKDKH
Chain of PDXK (O00764 whole entry): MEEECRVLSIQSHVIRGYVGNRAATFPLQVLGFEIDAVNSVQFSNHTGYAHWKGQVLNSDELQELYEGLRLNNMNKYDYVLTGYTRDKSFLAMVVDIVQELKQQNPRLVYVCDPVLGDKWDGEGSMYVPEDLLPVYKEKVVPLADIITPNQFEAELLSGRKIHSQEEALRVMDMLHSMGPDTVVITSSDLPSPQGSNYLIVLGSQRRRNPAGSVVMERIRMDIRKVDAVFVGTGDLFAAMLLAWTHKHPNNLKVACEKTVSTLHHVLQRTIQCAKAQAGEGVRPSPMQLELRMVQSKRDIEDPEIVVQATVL
Chain of BUB1 (O43683 whole entry): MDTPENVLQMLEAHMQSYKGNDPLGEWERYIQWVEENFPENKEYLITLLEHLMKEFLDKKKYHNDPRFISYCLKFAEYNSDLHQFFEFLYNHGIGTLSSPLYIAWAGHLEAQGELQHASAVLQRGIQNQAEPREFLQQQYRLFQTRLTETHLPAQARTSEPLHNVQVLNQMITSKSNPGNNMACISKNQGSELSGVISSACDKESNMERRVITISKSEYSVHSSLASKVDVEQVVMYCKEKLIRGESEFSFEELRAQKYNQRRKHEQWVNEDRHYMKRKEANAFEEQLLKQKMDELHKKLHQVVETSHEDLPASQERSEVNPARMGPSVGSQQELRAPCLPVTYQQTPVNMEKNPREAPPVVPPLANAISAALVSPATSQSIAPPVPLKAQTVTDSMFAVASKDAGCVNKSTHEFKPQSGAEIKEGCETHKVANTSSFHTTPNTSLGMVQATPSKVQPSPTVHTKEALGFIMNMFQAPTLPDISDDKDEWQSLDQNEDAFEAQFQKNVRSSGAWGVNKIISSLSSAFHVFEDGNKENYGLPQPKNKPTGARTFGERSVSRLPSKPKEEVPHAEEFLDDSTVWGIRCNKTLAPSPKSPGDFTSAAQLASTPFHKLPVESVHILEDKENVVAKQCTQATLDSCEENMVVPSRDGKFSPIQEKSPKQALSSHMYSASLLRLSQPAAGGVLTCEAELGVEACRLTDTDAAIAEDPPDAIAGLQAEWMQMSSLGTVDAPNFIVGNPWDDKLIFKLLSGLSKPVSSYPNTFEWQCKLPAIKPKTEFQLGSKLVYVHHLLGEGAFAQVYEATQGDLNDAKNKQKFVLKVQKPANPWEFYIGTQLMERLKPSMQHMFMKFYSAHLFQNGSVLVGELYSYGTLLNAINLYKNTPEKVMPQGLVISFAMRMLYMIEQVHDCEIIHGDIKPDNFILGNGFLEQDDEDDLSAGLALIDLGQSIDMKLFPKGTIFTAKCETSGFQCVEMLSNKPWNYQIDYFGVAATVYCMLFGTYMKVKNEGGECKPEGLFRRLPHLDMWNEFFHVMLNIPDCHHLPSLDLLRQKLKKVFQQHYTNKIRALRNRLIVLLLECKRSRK
Chain of STK35 (Q8TDR2 whole entry): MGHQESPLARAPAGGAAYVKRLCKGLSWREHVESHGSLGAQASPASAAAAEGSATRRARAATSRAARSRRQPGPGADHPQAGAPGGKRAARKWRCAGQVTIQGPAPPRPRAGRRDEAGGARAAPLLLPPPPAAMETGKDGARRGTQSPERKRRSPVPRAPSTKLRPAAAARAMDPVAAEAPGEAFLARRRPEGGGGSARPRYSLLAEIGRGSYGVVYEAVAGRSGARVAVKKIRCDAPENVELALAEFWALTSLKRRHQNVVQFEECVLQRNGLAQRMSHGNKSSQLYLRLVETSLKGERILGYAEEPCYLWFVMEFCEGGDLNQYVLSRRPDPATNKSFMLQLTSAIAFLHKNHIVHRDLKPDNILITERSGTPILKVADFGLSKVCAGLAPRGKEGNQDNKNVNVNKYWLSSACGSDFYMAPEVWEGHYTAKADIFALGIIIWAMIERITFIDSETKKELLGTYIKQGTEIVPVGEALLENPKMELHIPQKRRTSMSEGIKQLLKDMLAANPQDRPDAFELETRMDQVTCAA
Chain of MAPK11 (Q15759 whole entry): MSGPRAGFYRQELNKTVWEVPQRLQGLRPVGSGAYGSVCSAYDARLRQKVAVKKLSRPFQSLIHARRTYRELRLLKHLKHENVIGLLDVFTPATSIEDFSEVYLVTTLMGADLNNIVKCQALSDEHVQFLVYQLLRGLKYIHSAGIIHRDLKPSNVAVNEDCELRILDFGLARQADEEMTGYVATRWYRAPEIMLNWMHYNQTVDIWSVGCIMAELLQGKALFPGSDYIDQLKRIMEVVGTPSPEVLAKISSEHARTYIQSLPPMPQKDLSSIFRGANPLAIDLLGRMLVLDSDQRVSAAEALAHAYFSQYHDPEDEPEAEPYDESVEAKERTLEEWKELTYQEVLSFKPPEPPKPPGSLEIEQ

IC50 (ACVR1B): ≥ 20 µM | IC50 (HIPK3): ≥ 20 µM | IC50 (BUB1): ≥ 20 µM | IC50 (PDXK): ≥ 20 µM | IC50 (WNK4): ≥ 20 µM | IC50 (RIPK1): ≥ 20 µM | IC50 (STK35): ≥ 20 µM | IC50 (PRKAG2): ≥ 20 µM | IC50 (HIPK1): ≥ 20 µM | IC50 (ERN1): ≥ 20 µM | IC50 (EPHB2): ≥ 20 µM | IC50 (BMX): ≥ 20 µM | IC50 (CDK10): 2.6 µM | IC50 (MINK1): ≥ 20 µM | IC50 (SRC): ≥ 20 µM | IC50 (MELK): ≥ 20 µM | IC50 (MAST3): ≥ 20 µM | IC50 (EIF2AK4): ≥ 20 µM | IC50 (PIK3R4): ≥ 20 µM | IC50 (MAPK11): ≥ 20 µM | IC50 (MAP3K1): ≥ 20 µM
SMILES: COc1ccccc1-c1n[nH]c2nc(N[C@H]3CC[C@H](NS(=O)(=O)CCC(F)(F)F)CC3)nc(OC)c12 [compound 31, 3,3,3-Trifluoro-N-(trans-4-((4-methoxy-3-(2-methoxyphenyl)-1H-pyrazolo[3,4-d]pyrimidin-6-yl)amino)cyclohexyl)propane-1-sulfonamide]
